Results taken from patent US20240167037A1, “CANCER THERAPY” (NATIONAL UNIVERSITY CORPORATION KOBE UNIVERSITY, priority 2021, published 2024).

Legend:
Type in all cases: cell-based, human
MDA-MB-231 cells [1] = test: In vitro invasion assay (BioCoat Matrigel Invasion Chambers); conditions: MβCD 4 mM, calyculin A 0.5 nM; drugs added in both sides; 24 h; FIG. 10b
Procedure: In vitro invasion and migration assays. For invasion and migration assays, we used BioCoat Matrigel Invasion Chambers (Corning) and 8.0 μm PET trans-migration inserts (Corning), respectively. In the invasion assay, 1×10^5 cells were suspended in serum-free medium and seeded on top of the chamber's membrane, in which medium containing serum was placed at the bottom. For MβCD or calyculin A treatment, drugs were added in both sides. Low-invasive epithelial (MCF10A, AU565, and MCF7) cells and MDA-MB-231 cells were incubated for 36 h and 24 h, respectively, and then fixed in 4% formaldehyde. Invaded cells were imaged using a BZ-X700 microscope (Keyence) with 10× magnification and counted. In the migration assay, 5×10^4 cells were seeded on top of the PET membrane, incubated for 24 h, and analyzed as described for the invasion assay. For the quantification of invasive structures grown in 3D on-top culture (FIGS. 5a and b), the elongated mesenchymal-like and rounded morphologies were defined as invasive and non-invasive phenotypes, respectively, and quantified.

[2] = test system: GFP-FBP17 in MDA-MB-231 cells; test: Confocal quantification of GFP-FBP17 puncta at the plasma membrane; conditions: FIG. 5g, 11c, 11e
Procedure: Confocal microscopy, live-cell imaging, and image analysis. For immunofluorescence analysis, cells were fixed with 4% formaldehyde in phosphate-buffered saline (PBS) for 10 min and permeabilized with 0.2% Triton X-100 for 10 min in PBS. Cells were blocked with 5% goat serum (Sigma-Aldrich) in PBS for 1 h and were incubated with primary antibodies for at least 3 h. Then, cells were incubated with secondary antibodies for 1 h. For membrane visualization, Alexa Fluor™ 350 conjugated wheat germ agglutinin (WGA) (Thermo Scientific) was incubated with fixed cells for 30 min before permeabilization. For visualization of F-actin, Alexa Fluor™ 568 Phalloidin (Thermo Scientific) was incubated with fixed cells for 30 min. Fluorescence images were captured using a confocal microscopy system (FluoView 1000-D; Olympus) equipped with 405-, 473-, and 568-nm diode lasers through an objective lens (60× oil immersion objective, NA=1.35). […] The aspect ratio was determined as a ratio of the major cell axis length to minor cell axis length, which was calculated automatically by Image J. We observed that elongated cells typically have an aspect ratio of 5-8, whereas that of amoeboid cells is 2-3. […] The mean intensity of pERM or F-actin all along the membrane regions was then calculated and divided by their mean intensities throughout the cytosol (avoiding the nucleus). […]

MDA-MB-231 cells [3] = test: Tether force measurement with optical tweezers and estimation of PM tension; conditions: MβCD 4 mM vs mock (FIG. 10c), MA-ezrin expression vs parental (FIG. 4a)
Procedure: Tether force measurement with optical tweezers and the estimation of PM tension. Tether force measurements were performed with an optical tweezers system (NanoTracker™ 2, JPK Instruments) equipped with an infrared (IR) laser source (3 W, 1064 nm) on an Olympus IX-73 inverted microscope with a 60×(numerical aperture=1.2) water immersion objective (Olympus). Silica beads (1.5 μm diameter, Polysciences) were incubated with concanavalin A (Sigma-Aldrich) at 1 mg/ml for 1 h. Cells were plated onto glass-bottom dishes (WPI). Coated beads were added to the cell culture medium supplemented with 25 mM HEPES (pH 7.5), and experiments were performed at 37° C. Tether force (F) can be calculated using Hooke's law: F=kΔx, where k is the stiffness of the trap and Δx is the displacement of the bead from the trap center. […] The displacement of the bead in the trap center (Δx) was determined by a quadrant photodiode detector with high precision (the resolution less than 1 nm). […] To compare PM tension between non-motile epithelial cells and malignant cells, we measured the tethering force on the lateral sides of cells. […]
PM tension can be estimated with the following formula: T=Ftether^2/8Bπ^2, where T is the apparent plasma membrane tension (PM tension), Ftether is the tether force measured by optical tweezers, and B is the bending stiffness of the membrane. […]

Molecule | invasive ability (drug-treated cells that invaded through Matrigel) (MDA-MB-231 cells [1]) | recruitment / accumulation of GFP-FBP17 at the PM [2] | PM tension (estimated from tether force) (MDA-MB-231 cells [3])
COC[C@@H]([C@H](O)[C@H](O)C(=O)NCC[C@H](C)c1nc(/C=C/C[C@@H]2O[C@]3(C[C@@H](O)[C@@H]2C)O[C@H]([C@H](C[C@H](O)[C@H](C)[C@H](O)[C@H](C)/C=C(C)/C(C)=C/C=C/C(C)=C\C#N)OC)[C@H](OP(=O)(O)O)C3(C)C)co1)N(C)C [calyculin A] | no effect |  | 
methyl-β-cyclodextrin [MβCD] | significantly reduced | sufficient to prevent | increases
